# From patent US9682963B2, “Pyridine derivatives as soft rock inhibitors” (Amakem NV, priority 2013, dated 2017)
# Experiments:
# male BALB/c mice = test: Acute LPS lung challenge model, BALF cell counts; assay type: in vivo, mouse; details: 0.1 and 0.01 mg/kg intratracheally 0.5 hr before LPS; BALF at 24 hrs; versus dexamethasone 1 mg/kg oral
# Procedure: FIG. 1: Anti-inflammatory activity of Cpd4 in an acute LPS lung challenge model (mouse). Data is provided as bronchoalveolar lavage fluid (BALF) cell count (10^3/μl)±SEM. WBC: White Blood Cell. NEUT: Neutrophil. Dex: Dexamethasone control.
# Selected compounds of the invention were evaluated in vivo in an acute LPS lung challenge model. Groups of 6 male BALB/c mice were used for each tested dose and for positive and negative controls. Under anesthesia with gas anesthetics (isoflurane), test substances and vehicle (0.9% NaCl, 1 mL/kg) were administered intratracheally (IT) to test animals 0.5 hr prior to challenge with ˜80 μg/kg of E. coli lipopolysaccharide (LPS, Sigma, serotype 055:B5, in sterile saline, 2 μg in 20 μL per mouse intratracheally). Dexamethasone, the positive control, at 1 mg/kg in 2% Tween 80 was given orally to test animals one hour before LPS challenge. Mice were anaesthetized with isoflurane at 24 hrs after LPS challenge, 0.5 mL of phosphate buffered saline (PBS, pH 7.4) was instilled into the lung twice through a tracheal cannula, after which about a total of 0.6˜0.8 mL of bronchoalveolar lavage fluid (BALF) was obtained. Total cell and neutrophils counts in BALF were then determined and one-way ANOVA followed by Dunnett's test was used to analyze difference between the vehicle control and treated groups. Significant difference is considered at P<0.05.
# [1] = test system: MLC-T18/S19 phosphorylation in A7r5 cells (endogenous ROCK); test: MLC phosphorylation assay (ELISA) in A7r5 cells; assay type: cell-based; details: Rattus norvegicus, serum-free medium, phospho-MLC-T18/S19 ELISA, read-out: EC50 MLC-PP
# Procedure: Rat smooth muscle cell line A7r5 is used. The endogenous expression of ROCK results in a constitutive phosphorylation of the regulatory myosin light chain at T18/S19. A7r5 cells were plated in DMEM supplemented with 10% FCS in multiwall cell culture plates. After serum starvation overnight, cells were incubated with compounds in serum-free medium.
# Quantification of MLC-T18/S19 phosphorylation is assessed in 96 well-plates via ELISA using a phospho-MLC-T18/S19 specific antibody and a secondary detection antibody. Raw data were converted into percent substrate phosphorylation relative to high controls, which were set to 100%. EC50 values were determined using GraphPad Prism 5.01 software using a nonlinear regression curve fit with variable hill slope.
# [2] = Stability towards drug metabolizing enzymes in lung S9; assay type: in vitro ADME; details: human, lung S9 fraction, lung S9 with NADPH, UDPGA, PAPS and GSH, read-out: t½ human lung S9
# Procedure: A 1 μM solution of the ROCK inhibitors is incubated with a reaction mixture containing lung S9 (EDTA-free) as well as the cofactors NADPH, UDPGA, PAPS and GSH. Samples are collected at 0, 15, 30 and 60 minutes post incubation. Negative control samples incubated with ROCK inhibitors and S9 fraction in the absence of cofactors are run in parallel. By using LC-MS/MS analysis, the percent of ROCK compounds remaining at each time point, the metabolic half-life of the ROCK compounds (expressed in minutes in table C.2.2) and the metabolic half-life of the control compounds are determined.
# [3] = Stability assay in human plasma; assay type: in vitro ADME; details: 1 μM in human plasma, LC-MS/MS; read-out: t½ human plasma
# Procedure: Compounds are incubated at a concentration of 1 μM in human (or animal) plasma. Samples are taken at fixed time points and the remnant of compound is determined by LC-MS/MS after protein precipitation. Half life in table C.2.1 is expressed in minutes.
# [4] = Stability in human intestinal tissue homogenate; assay type: in vitro ADME; details: 40 mg/ml human intestinal homogenate, read-out: t½ (min) human
# Procedure: A 1 μM solution of the ROCK inhibitors is incubated with human intestinal tissue homogenate (final concentration: 40 mg/ml) Samples are collected at 0, 20 and 60 minutes post incubation. By using LC-MS/MS analysis, the percent of ROCK compounds remaining at each time point, the metabolic half-life of the ROCK compounds (expressed in minutes in table C.2.3) and the metabolic half-life of control compounds are determined.
# [5] = Stability in mouse intestinal homogenate; assay type: in vitro ADME; details: 40 mg/ml mouse intestinal homogenate, read-out: t½ (min) mouse
SMILES,anti-inflammatory activity (BALF WBC and neutrophil count) (male BALB/c mice),EC50 [1] [nM],half-life at 1 μM [2] [min],half-life at 1 μM [3] [min],half-life at 1 μM [4] [min],half-life at 1 μM [5] [min]
"NCc1ccc(C(=O)Nc2ccncc2F)cc1-c1cccc(NC(=O)c2ccc(SC3CCOC3=O)cc2)c1 (stereo not shown) [Cpd 4, 6-(aminomethyl)-N-(3-fluoropyridin-4-yl)-3′-(4-((2-oxotetrahydrofuran-3-yl)thio)benzamido)-[1,1′-biphenyl]-3-carboxamide]",equivalent to the dexamethasone control,< 100,> 60,< 20,–,–
"NCc1ccc(C(=O)Nc2ccncc2F)cc1-c1cccc(C(=O)Nc2ccc(SCC3CCOC3=O)cc2)c1 (stereo not shown) [Cpd 2, 6-(aminomethyl)-N^3-(3-fluoropyridin-4-yl)-N^3′-(4-(((2-oxotetrahydrofuran-3-yl)methyl)thio)phenyl)-[1,1′-biphenyl]-3,3′-dicarboxamide]",–,< 100,> 60,< 20,> 120,> 120
"NCc1ccc(C(=O)Nc2ccncc2F)cc1-c1cccc(C(=O)Nc2cccc(SC3CCOC3=O)c2)c1 (stereo not shown) [Cpd 8, 6-(aminomethyl)-N^3-(3-fluoropyridin-4-yl)-N^3′-(3-((2-oxotetrahydrofuran-3-yl)thio)phenyl)-[1,1′-biphenyl]-3,3′-dicarboxamide]",–,100 to 1000,–,< 20,–,–
"NCc1ccc(C(=O)Nc2ccncc2F)cc1-c1cccc(C(=O)Nc2ccc(CNC3CCOC3=O)cc2)c1 (stereo not shown) [Cpd 1, 6-(aminomethyl)-N^3-(3-fluoropyridin-4-yl)-N^3′-(4-(((2-oxotetrahydrofuran-3-yl)amino)methyl)phenyl)-[1,1′-biphenyl]-3,3′-dicarboxamide]",–,100 to 1000,> 60,< 20,–,–
"NCc1ccc(C(=O)Nc2ccncc2F)cc1-c1cccc(C(=O)Nc2ccc(SC3CCOC3=O)cc2)c1 (stereo not shown) [Cpd 6, 6-(aminomethyl)-N^3-(3-fluoropyridin-4-yl)-N^3′-(4-((2-oxotetrahydrofuran-3-yl)thio)phenyl)-[1,1′-biphenyl]-3,3′-dicarboxamide]",–,< 100,> 60,< 20,–,–
"NCc1ccc(C(=O)Nc2ccncc2F)cc1-c1cccc(C(=O)Nc2ccc(SC3COC(=O)C3)cc2)c1 (stereo not shown) [Cpd 11, 6-(aminomethyl)-N^3-(3-fluoropyridin-4-yl)-N^3′-(4-((2-oxotetrahydrofuran-4-yl)thio)phenyl)-[1,1′-biphenyl]-3,3′-dicarboxamide]",–,< 100,–,< 20,–,–
"NCc1ccc(C(=O)Nc2ccncc2F)cc1-c1cccc(C(=O)Nc2ccc(OC3CCOC3=O)cc2)c1 (stereo not shown) [Cpd 3, 6-(aminomethyl)-N^3-(3-fluoropyridin-4-yl)-N^3′-(4-((2-oxotetrahydrofuran-3-yl)oxy)phenyl)-[1,1′-biphenyl]-3,3′-dicarboxamide]",–,100 to 1000,–,< 20,–,–
"CN(c1ccc(NC(=O)c2cccc(-c3cc(C(=O)Nc4ccncc4F)ccc3CN)c2)cc1)C1CCOC1=O (stereo not shown) [Cpd 7, 6-(aminomethyl)-N^3-(3-fluoropyridin-4-yl)-N^3′-(4-(methyl(2-oxotetrahydrofuran-3-yl)amino)phenyl)-[1,1′-biphenyl]-3,3′-dicarboxamide]",–,< 100,> 60,< 20,> 120,> 120
"NCc1ccc(C(=O)Nc2ccncc2F)cc1-c1cccc(C(=O)Nc2ccc(NC3CCOC3=O)cc2)c1 (stereo not shown) [Cpd 5, 6-(aminomethyl)-N^3-(3-fluoropyridin-4-yl)-N^3′-(4-((2-oxotetrahydrofuran-3-yl)amino)phenyl)-[1,1′-biphenyl]-3,3′-dicarboxamide]",–,< 100,> 60,< 20,–,> 120
"CC1CC(Sc2ccc(NC(=O)c3cccc(-c4cc(C(=O)Nc5ccncc5F)ccc4CN)c3)cc2)C(=O)O1 (stereo not shown) [Cpd 9, 6-(aminomethyl)-N^3-(3-fluoropyridin-4-yl)-N^3′-(4-((5-methyl-2-oxotetrahydrofuran-3-yl)thio)phenyl)-[1,1′-biphenyl]-3,3′-dicarboxamide]",–,< 100,–,< 20,–,–
"NCc1ccc(C(=O)Nc2ccncc2F)cc1-c1cccc(C(=O)Nc2ccc(SC3CCOC3=O)cc2F)c1 (stereo not shown) [Cpd 12, 6-(aminomethyl)-N^3-(3-fluoropyridin-4-yl)-N^3′-(2-fluoro-4-((2-oxotetrahydrofuran-3-yl)thio)phenyl)-[1,1'-biphenyl]-3,3′-dicarboxamide]",–,< 100,–,< 20,–,–
"NCc1ccc(C(=O)Nc2ccncc2F)cc1-c1cccc(NC(=O)c2ccc(NC3CCOC3=O)cc2)c1 (stereo not shown) [Cpd 13, 6-(aminomethyl)-N-(3-fluoropyridin-4-yl)-3′-(4-((2-oxotetrahydrofuran-3-yl)amino)benzamido)-[1,1′-biphenyl]-3-carboxamide]",–,< 100,> 60,< 20,–,–
